# Source: patent publication US12195427B2, “MASP-2 inhibitors and methods of use” (priority 2018, dated 2025)
# Target: MASP-2 CCP2-SP (Homo sapiens (Human), UniProt O00187)
# Assay: MASP-2 co-crystallization, X-ray crystallography and structure analysis (H-bonds, van der Waals contacts);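 as to Ligand-pharmacophore element distance, pharmacophore element C2: distance from averaged pharmacophore element to bound ligand; missing value means element absent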;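 as to Ligand-pharmacophore element distance, pharmacophore element C3: distance from averaged pharmacophore element to bound ligand; missing value means element absent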;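 as to Ligand-pharmacophore element distance, pharmacophore element C4: distance from averaged pharmacophore element to bound ligand; missing value means element absent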;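 as to Ligand-pharmacophore element distance, pharmacophore element C5: distance from averaged pharmacophore element to bound ligand; missing value means element absent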
# Parameters: van der Waals contact distance, MASP-2 HIS 483 atom CD2 / van der Waals contact distance, MASP-2 HIS 483 atom NE2 / van der Waals contact distance, SER 654 C to compound atom / van der Waals contact distance, SER 654 O to compound atom / van der Waals contact distance, TRP 655 C to compound atom / van der Waals contact distance, MASP-2 GLY 528 atom CA / van der Waals contact distance TRP 655 atom CZ3 / van der Waals contact distance TRP 655 atom N / van der Waals contact distance TRP 655 atom CE3 / van der Waals contact distance GLY 656 atom C / van der Waals contact distance GLY 656 atom CA / van der Waals contact distance GLY 656 atom O / van der Waals contact distance, MASP-2 TYR 607 atom CD1 / van der Waals contact distance, MASP-2 PRO 606 atom O / d(C3,CA1) / d(CA1,N1)2 / d(H4,O1) / d(H4,O2) / d(O1,O2) / d(CA1,O2) / d(CA6,O1) / d(CA6,O2) / d(CA1,C5) / d(O2,H3) / d(N2,C2) / d(CA5,N2) / d(N2,C4) / d(N2,C6) / d(N2,CA3) / d(N2,O3) / d(O4,H2): unit not given beside the values
# Settings: for Ligand-pharmacophore element distance, pharmacophore element C2 / Ligand-pharmacophore element distance, pharmacophore element C3 / Ligand-pharmacophore element distance, pharmacophore element C4 / Ligand-pharmacophore element distance, pharmacophore element C5 / Ligand-pharmacophore element distance, pharmacophore element C6 / Ligand-pharmacophore element distance, pharmacophore element C7 / Ligand-pharmacophore element distance, pharmacophore element CA1 / Ligand-pharmacophore element distance, pharmacophore element CA2 / Ligand-pharmacophore element distance, pharmacophore element CA3 / Ligand-pharmacophore element distance, pharmacophore element CA4 / Ligand-pharmacophore element distance, pharmacophore element CA5 / Ligand-pharmacophore element distance, pharmacophore element CA6: Table A4-1; for a(N1, CA1, O1) b): Methyl-amino-pyridine compounds
# How it was run: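 First, CCP2-SP constructs with or without a 6His tag are produced in E. coli. Crystals are then soaked once or twice with inhibitor, cryoprotected in 20% glycerol or frozen directly, and diffracted at synchrotron beamlines. Phasing uses molecular replacement with parts of 1Q3X.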
# [1] = Table A5-1 pharmacophore: distance between elements, S2/S1 region
# [2] = Table A5-2 pharmacophore distance, S3/S4 region
# [3] = Table A7-1, between pharmacophore elements of the bound compound
# [4] = Table A7-2, between pharmacophore elements of the bound compound
# MASP-2 CCP2-SP, sequence (O00187 445-686): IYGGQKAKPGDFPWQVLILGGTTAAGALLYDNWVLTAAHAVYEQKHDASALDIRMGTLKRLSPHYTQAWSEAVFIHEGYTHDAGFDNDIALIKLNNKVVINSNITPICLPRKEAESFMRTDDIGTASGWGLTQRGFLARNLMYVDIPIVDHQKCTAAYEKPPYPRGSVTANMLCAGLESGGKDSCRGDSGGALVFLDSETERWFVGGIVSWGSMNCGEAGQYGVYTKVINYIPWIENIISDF
# MASP-2 CCP2-SP, sequence (O00187 364-432 partner): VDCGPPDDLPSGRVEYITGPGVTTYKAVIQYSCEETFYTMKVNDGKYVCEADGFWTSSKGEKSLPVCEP
compound,measurement,setting,value
Cc1nc(N)ccc1CNC(=O)[C@H](C)NC(=O)[C@H]1C[C@H](Cc2cccc(Cl)c2)CN1.Cl.Cl [1328_4],"Ligand-pharmacophore element distance, pharmacophore element C2",,0
same,"Ligand-pharmacophore element distance, pharmacophore element C3",,0.18
same,"Ligand-pharmacophore element distance, pharmacophore element C4",,1.86
same,"Ligand-pharmacophore element distance, pharmacophore element C5",,0
same,"Ligand-pharmacophore element distance, pharmacophore element C6",,0
same,"Ligand-pharmacophore element distance, pharmacophore element C7",,0
same,"Ligand-pharmacophore element distance, pharmacophore element CA1",,0.5
same,"Ligand-pharmacophore element distance, pharmacophore element CA2",,0.3
same,"Ligand-pharmacophore element distance, pharmacophore element CA3",,0
same,"Ligand-pharmacophore element distance, pharmacophore element CA4",,0
same,"Ligand-pharmacophore element distance, pharmacophore element CA5",,0
same,"Ligand-pharmacophore element distance, pharmacophore element CA6",,0
same,"d(C3,CA1)",[1],2.85
same,"d(CA1,N1)2",[1],1.37
same,"d(CA1,O1)",[1],5.05
same,"d(CA1,O2)",[1],3.83
same,"d(H4,O1)",[1],4.21
same,"d(H4,O2)",[1],2.53
same,"d(O1,O2)",[1],3.71
same,"d(N2,C4)",[2],7.92
same,"d(N2,C4)4",[2],7.92
same,"d(N2,CA2)",[2],6.17
same,"d(O2,H3)",[2],4.71
same,"d(O2,N2)",[2],2.79
same,"a(C3, CA1, O1)",Table A6-1 pharmacophore angle,151.05
same,"a(CA1, O1, O2)",Table A6-1 pharmacophore angle,96.00
same,"a(O1, O2, H4)",Table A6-1 pharmacophore angle,119.12
same,"a(N1, CA1, O1) b)",Table A6-1 pharmacophore angle,173.49
same,"a(O1, O2, H3)",Table A6-2 pharmacophore angle,150.66
same,"a(O1, O2, N2)",Table A6-2 pharmacophore angle,142.82
same,"a(O2, N2, C4)",Table A6-2 pharmacophore angle,160.57
same,"a(O2, N2, C4) 2",Table A6-2 pharmacophore angle,109.36
same,"a(O2, N2, CA2)",Table A6-2 pharmacophore angle,156.25
same,"Pharmacophore torsion angle a(C3, CA1, O1, H4)",[3],66.00
same,"Pharmacophore torsion angle a(H4, O1, O2, H3)",[3],44.95
same,"Pharmacophore torsion angle a(H4, O1, O2, N2)",[3],135.08
same,"Pharmacophore torsion angle a(N1, CA1, O1, H4)",[3],58.16
same,"Pharmacophore torsion angle a(O1, H4, O2, CA1)",[3],−91.48
same,"Pharmacophore torsion angle a(O1, O2, N2, CA2)",[4],128.70
"Cc1nc(N)ccc1CNC(=O)C(C)NC(=O)[C@H]1C[C@H](c2cccc(-c3ccccc3)c2)CN1 (stereo in doubt) [compound 1360, (2R,4R)-4-([1,1′-Biphenyl]-3-yl)-N—((R)-1-(((6-amino-2-methylpyridin-3-yl)methyl)amino)-1-oxopropan-2-yl)pyrrolidine-2-carboxamide]",H-bond distance to MASP-2 ASP 627 atom OD2,"Table A1 (H-Bonds), ASP 627 OD2",3.15
same,H-bond distance to MASP-2 GLY 656 atom N,"Table A1 (H-Bonds), GLY 656 N",3.21
same,H-bond distance to MASP-2 GLY 656 atom O,"Table A1 (H-Bonds), GLY 656 O",2.9
same,H-bond distance to MASP-2 SER 628 atom O,"Table A1 (H-Bonds), SER 628 O",3.18
same,H-bond distance to MASP-2 SER 654 atom O,"Table A1 (H-Bonds), SER 654 O",3.04
same,H-bond distance to MASP-2 SER 657 atom O,"Table A1 (H-Bonds), SER 657 O",2.96
same,"van der Waals contact distance, MASP-2 HIS 483 atom CD2",Table A2-1,3.76
same,"van der Waals contact distance, MASP-2 HIS 483 atom NE2",Table A2-1,3.69
same,"van der Waals contact distance, MASP-2 PHE 529 atom CE1",Table A2-3,3.78
same,"van der Waals contact distance, MASP-2 amino acid atom to compound atom","Table A2-7: SER 628 (CB, O, OG)",3.61
same,"van der Waals contact distance, TRP 655 CA to compound atom",Table A2-12,3.44
same,"Ligand-pharmacophore element distance, pharmacophore element C2",,0
same,"Ligand-pharmacophore element distance, pharmacophore element C3",,0.11
same,"Ligand-pharmacophore element distance, pharmacophore element C4",,0
same,"Ligand-pharmacophore element distance, pharmacophore element C5",,0
same,"Ligand-pharmacophore element distance, pharmacophore element C6",,0
same,"Ligand-pharmacophore element distance, pharmacophore element C7",,0
same,"Ligand-pharmacophore element distance, pharmacophore element CA1",,0.57
same,"Ligand-pharmacophore element distance, pharmacophore element CA2",,2.35
same,"Ligand-pharmacophore element distance, pharmacophore element CA3",,0
same,"Ligand-pharmacophore element distance, pharmacophore element CA4",,0
same,"Ligand-pharmacophore element distance, pharmacophore element CA5",,1.11
same,"Ligand-pharmacophore element distance, pharmacophore element CA6",,0
same,"d(C3,CA1)",[1],2.85
same,"d(CA1,N1)2",[1],1.36
same,"d(CA1,O1)",[1],4.35
same,"d(CA1,O2)",[1],3.85
same,"d(H4,O1)",[1],4.38
same,"d(H4,O2)",[1],3.80
same,"d(O1,O2)",[1],3.32
same,"d(CA5,N2)",[2],5.07
same,"d(N2,CA2)",[2],8.32
same,"d(O2,H3)",[2],4.32
same,"d(O2,N2)",[2],2.66
same,"a(C3, CA1, O1)",Table A6-1 pharmacophore angle,150.18
same,"a(CA1, O1, O2)",Table A6-1 pharmacophore angle,105.67
same,"a(O1, O2, H4)",Table A6-1 pharmacophore angle,132.69
same,"a(N1, CA1, O1) b)",Table A6-1 pharmacophore angle,174.23
same,"a(O1, O2, H3)",Table A6-2 pharmacophore angle,147.57
same,"a(O1, O2, N2)",Table A6-2 pharmacophore angle,138.89
same,"a(O2, N2, CA2)",Table A6-2 pharmacophore angle,162.09
same,"Pharmacophore torsion angle a(C3, CA1, O1, H4)",[3],24.01
same,"Pharmacophore torsion angle a(H4, O1, O2, H3)",[3],51.00
same,"Pharmacophore torsion angle a(H4, O1, O2, N2)",[3],138.89
same,"Pharmacophore torsion angle a(N1, CA1, O1, H4)",[3],3.34
same,"Pharmacophore torsion angle a(O1, H4, O2, CA1)",[3],−83.81
same,"Pharmacophore torsion angle a(O1, O2, N2, CA2)",[4],130.24
same,"Pharmacophore torsion angle a(O1, O2, N2, CA5)",[4],129.35
C[C@H](NC(=O)[C@H]1C[C@@H](c2ccccc2)CCN1)C(=O)NCc1cc(Cl)ccc1O.Cl [1078_4],"Ligand-pharmacophore element distance, pharmacophore element C2",,0.67
same,"Ligand-pharmacophore element distance, pharmacophore element C3",,0
same,"Ligand-pharmacophore element distance, pharmacophore element C4",,0
same,"Ligand-pharmacophore element distance, pharmacophore element C5",,0.52
same,"Ligand-pharmacophore element distance, pharmacophore element C6",,0
same,"Ligand-pharmacophore element distance, pharmacophore element C7",,0
same,"Ligand-pharmacophore element distance, pharmacophore element CA1",,1.62
same,"Ligand-pharmacophore element distance, pharmacophore element CA2",,0.59
same,"Ligand-pharmacophore element distance, pharmacophore element CA3",,0
same,"Ligand-pharmacophore element distance, pharmacophore element CA4",,0
same,"Ligand-pharmacophore element distance, pharmacophore element CA5",,0
same,"Ligand-pharmacophore element distance, pharmacophore element CA6",,0
same,"d(CA1,C5)",[1],3.13
same,"d(CA1,O1)",[1],4.56
same,"d(CA1,O2)",[1],4.61
same,"d(CA1,O4)",[1],2.76
same,"d(H4,O1)",[1],2.27
same,"d(H4,O2)",[1],2.64
same,"d(O1,O2)",[1],3.39
same,"d(O4,H2)",[1],0.97
same,"d(N2,C2)",[2],1.51
same,"d(N2,CA2)",[2],5.66
same,"d(O2,H3)",[2],2.72
same,"d(O2,N2)",[2],2.70
same,"a(C5, CA1, O1)",Table A6-1 pharmacophore angle,161.60
same,"a(CA1, O1, O2)",Table A6-1 pharmacophore angle,112.48
same,"a(CA1, O4, H2)",Table A6-1 pharmacophore angle,128.57
same,"a(O1, CA1, O4)",Table A6-1 pharmacophore angle,65.56
same,"a(O1, O2, H4)",Table A6-1 pharmacophore angle,93.17
same,"a(O1, O2, H3)",Table A6-2 pharmacophore angle,141.42
same,"a(O1, O2, N2)",Table A6-2 pharmacophore angle,146.07
same,"a(O2, N2, C2)",Table A6-2 pharmacophore angle,126.96
same,"a(O2, N2, CA2)",Table A6-2 pharmacophore angle,155.54
same,"Pharmacophore torsion angle a(C5, CA1, O1, H4)",[3],32.90
same,"Pharmacophore torsion angle a(H4, O1, O2, H3)",[3],−123.98
same,"Pharmacophore torsion angle a(H4, O1, O2, N2)",[3],−113.42
same,"Pharmacophore torsion angle a(O1, H4, O2, CA1)",[3],−58.33
same,"Pharmacophore torsion angle a(O1, O2, N2, C2)",[3],124.98
same,"Pharmacophore torsion angle a(O1, O2, N2, CA2)",[4],136.93
